From publication PMC11477194, “3-Alkoxy-1-Benzyl-5-Nitroindazole Derivatives Are Potent Antileishmanial Compounds” (International Journal of Molecular Sciences, 2024)
Read-outs that look alike come from different tables or passages of the source.

Tests used:
[1] = Cytotoxicity in mouse peritoneal macrophages (resazurin); type: cell-based; settings: concentration that causes lysis of 50% of BALB/c mouse peritoneal macrophages
Description: To obtain peritoneal macrophages, the mice were sacrificed by cervical dislocation, and the resident cells in the peritoneum were extracted by washing with RPMI (Roswell Park Memorial Institute, Buffalo, NY, USA) medium and cold (4 °C) supplemented with 10% FBS and antibiotics (sodium penicillin 200 IU/mL and streptomycin 200 μg/mL). Cell concentration was calculated using Neubauer chamber counts in an optical microscope (Motic, Xiamen, China) with a 40× objective and 10× eyepieces (400× magnification).
Cytotoxicity in mouse peritoneal macrophages: Peritoneal macrophages were adjusted to 10^5 macrophages/mL, and 200 μL was seeded per well in a 96-well plate and incubated at 33 °C and 5% CO2 for 2 h. Subsequently, the non-attached cells were discarded, and the monolayer was washed with PBS. The compounds were tested in serial dilutions of 1/2.5 (650–1.0 μM). The treated cultures were incubated for 48 h at 33 °C in a humidified atmosphere containing 5% CO2.
(§1) Every concentration of the test compounds was assessed in quadruplicate.
(§2) Cell viability was assessed using the resazurin transformation method. After the incubation period, 20 μL of 3 mM resazurin solution prepared in sterile PBS was added to each well. Reading was performed at 540 nm excitation and 590 nm emission wavelengths after 8 h of incubation in a 96-well plate reader (SUMA®, Habana, Cuba). The mean fluorescence intensity was calculated for each concentration. From the mean values of fluorescence and the corresponding product concentrations, a non-linear fit to the Emax sigmoid model was performed, and the mean inhibitory concentrations (IC50), mean effective concentrations (EC50), and the mean cytotoxic concentration (CC50) were estimated. The selectivity index was calculated as SIp = CC50/IC50 and SIa = CC50/EC50 for the promastigote and amastigote stages, respectively.

[2] = tested on: L. amazonensis promastigotes; test: Susceptibility assay in promastigotes, L. amazonensis; type: cell-based; settings: 72 h, read-out: IC50 ± SD
Excerpt: (§3) The strains used in this research were MHOM/BR/77/LTB0016 of L. amazonensis from the Pedro Kouri Institute of Tropical Medicine Cuba strains collection, MHOM/FR/78/LEM75 of L. infantum from the Department of Parasitology, Faculty of Pharmacy of the Complutense University of Madrid Spain, and MNYC/BZ/62/M379 of L. mexicana from the Laboratory of Molecular Immunobiochemistry and Heart Diseases UNAM-INC Mexico Research Unit. The parasites were obtained from the skin lesions of previously infected BALB/c mice and maintained at 26 °C in Schneider medium (SIGMA, St. Louis, MO, USA) and supplemented with antibiotics (penicillin sodium 200 IU/mL and streptomycin 200 μg/mL SIGMA, St. Louis, MO, USA) and 10% fetal bovine serum (FBS, SIGMA, St. Louis, MO, USA), and inactivated with heat (56 °C, 30 min). The promastigotes, once isolated, were kept in the exponential multiplication phase by successive subcultures every 3 or 4 days until the time of use.
(§4) Susceptibility assay in promastigotes: Promastigotes culture in the exponential growth phase were seeded in 96-well plates (10^6 parasites/mL) at a final volume of 200 μL/well. Compounds were tested in serial 1/2.5 dilutions (130–0.2 μM). The treated cultures were incubated for 72 h at 26 °C.
as §1, §2

[3] = tested on: L. infantum promastigotes; test: Susceptibility assay in promastigotes, L. infantum; type: cell-based; settings: 72 h, read-out: IC50 ± SD
Excerpt: as §3, §4, §1, §2

[4] = tested on: L. mexicana promastigotes; test: Susceptibility assay in promastigotes, L. mexicana; type: cell-based; settings: 72 h
Excerpt: as §3, §4, §1, §2

[5] = tested on: L. infantum intracellular amastigotes; test: Intracellular amastigote assay, L. infantum; type: cell-based; settings: read-out: EC50 ± SD
Excerpt: as §3
(§5) Intracellular amastigote assay: Macrophages were seeded in 96-well plates at an initial density of 10^5 cells/mL in a final volume of 200 µL per well. After 2 h of incubation at 33 °C and 5% CO2, the cell monolayer was infected with a culture of promastigotes in the stationary phase of growth at a ratio of 10:1 (promastigotes: macrophages) and incubated under the same conditions for 4 h. The compounds were tested in serial dilutions of 1/2.5 (15–0.02 μM). The treated cultures were then incubated for 48 h under similar conditions. After incubation, the RPMI medium was removed and replaced with Schneider’s medium. Cultures were incubated for 72 h at 26 °C to allow the surviving amastigotes to transform into promastigotes and replicate.
as §1, §2

[6] = tested on: L. mexicana intracellular amastigotes; test: Intracellular amastigote assay, L. mexicana; type: cell-based; settings: Leishmania mexicana, read-out: EC50 ± SD, intracellular amastigotes, L. mexicana
Excerpt: as §3, §5, §1, §2

[7] = tested on: L. amazonensis intracellular amastigotes; test: Intracellular amastigote assay, L. amazonensis; type: cell-based; settings: read-out: EC50 ± SD
Excerpt: as §3, §5, §1, §2

[8] = tested on: amastigotes of L. amazonensis; settings: cited from earlier work
Leishmania spp. [9] = settings: promastigote stage, drug used in the clinic; cited from earlier work
[10] = tested on: promastigotes of L. amazonensis; test: Scanning and transmission electron microscopy of treated promastigotes; type: cell-based; settings: for Structural damage, scanning electron microscopy: L. amazonensis promastigotes treated at IC50, ½ IC50, ¼ IC50; for Ultrastructural damage, transmission electron microscopy: L. amazonensis promastigotes, 72 h of incubation at IC50, ½ IC50, ¼ IC50
Excerpt: The concentrations of compounds selected for the study of structural and ultrastructural damage were those corresponding to IC50, ½ IC50, and ¼ IC50 for compound NV8 (reported in this study) and the previously reported compound VATR 131 [21]. The procedure for the treatment of cultures was the same as that described above for the in vitro tests on promastigotes of L. amazonensis. Two negative controls were used: a DMSO-treated culture (0.1%) and an untreated culture.
At the end of the exposure to the compounds, the parasites were washed once with PBS and immediately fixed with 2.5% glutaraldehyde in PBS for 1 h at room temperature. After a thorough wash with PBS, the parasites were fixed with 1% OsO4 in PBS at 4 °C for 1 h and then washed with PBS. The parasites were dehydrated in increasing concentrations of ethanol. Drying was carried out at the critical point of CO2 in a Samdry 780 apparatus (USA). Next, they were evaporated with gold in a Denton Vacuum Desk (USA). Finally, the samples were observed and micrographed using a JSM 6510LB-JEOL microscope at 30 keV.
Promastigotes were washed with PBS and fixed with 2.5% glutaraldehyde solution for 1 h at 4 °C. They were then fixed with a solution of 1% OsO4 in the same buffer at 4 °C and in darkness for 1 h. Promastigotes were washed with PBS at RT and dehydrated in an ethanolic solution in increasing order by up to 100%. They were then included in the epoxy resin using specific molds for polymerization and maintained at 60 °C for a minimum period of 72 h. The blocks were cut with an ultramicrotome (Reichert Jung, Austria) into thin sections. The slices were stained with uranyl acetate and lead citrate and subsequently micrographed using a JEM 1400 transmission electron microscope (JEOL, Ltd., Tokyo, Japan).

Leishmania spp. [11] = test: Antileishmanial activity, species not separated (pooled statement or literature); type: cell-based; settings: all Leishmania species; active = IC50 ≤ 1 μM and SI ≥ 10
[12] = tested on: L. amazonensis promastigotes; set-up: method as in PMID 37915499; settings: promastigotes of L. amazonensis; previously reported compound; cited from earlier work
[13] = BALB/c, mouse, peritoneal macrophages
[14] = Leishmania amazonensis, promastigotes, L. amazonensis
[15] = Leishmania infantum, promastigotes, L. infantum
[16] = Leishmania mexicana, read-out: IC50 ± SD, promastigotes, L. mexicana, 72 h
[17] = Leishmania infantum, intracellular amastigotes, L. infantum
[18] = Leishmania amazonensis, intracellular amastigotes, L. amazonensis
[19] = intracellular amastigotes, L. infantum

Row | SMILES | CC50 at 48 h [1, 13] [µM] | IC50 [2, 14] [µM] | IC50 [3, 15] [µM] | IC50 [4, 16] [µM] | EC50 [5, 17] [µM] | EC50 [6] [µM] | also measured
1 | NCCCOc1nn(Cc2ccccc2)c2ccc([N+](=O)[O-])cc12 [NV9] | 47.9 ± 10.4 | ≤ 1 | ≤ 1 | 2.8 ± 3 | 9.71 ± 0.4 | – | IC50 ([2]; promastigotes, L. amazonensis): 0.81 ± 0.17 µM; IC50 ([3]; promastigotes, L. infantum): 0.59 ± 0.16 µM
2 | O=[N+]([O-])c1ccc2c(c1)c(OCCCCCN1CCCCC1)nn2Cc1ccccc1 [NV16] | 21.1 ± 7.1 | – | 1.41 ± 0.03 | ≤ 1 | – | 4.29 ± 0.48 | IC50 ([4]; read-out: IC50 ± SD, promastigotes, L. mexicana): 0.5 ± 0.1 µM
3 | NCCOc1nn(Cc2ccccc2)c2ccc([N+](=O)[O-])cc12 [NV10] | 46.7 ± 7.7 | ≤ 1 | ≤ 1 | 4.5 ± 0.5 | – | – | IC50 ([2]; promastigotes, L. amazonensis): 0.99 ± 0.14 µM; IC50 ([3]; promastigotes, L. infantum): 0.93 ± 0.27 µM; EC50 [7, 18]: ≤ 5 µM; EC50 ([7]; intracellular amastigotes, L. amazonensis): 4.35 ± 0.9 µM
4 | CN(C)CCCCCOc1nn(Cc2ccccc2)c2ccc([N+](=O)[O-])cc12 [NV14] | 2.5 ± 0.7 | 0.5 ± 0.22 | 0.93 ± 0.18 | – | – | 8.2 ± 0.2 | –
5 | c1ccc2ncccc2c1 [quinoline] | – | – | – | – | – | – | EC50 [8]: 0.54 µM
6 | N=C(N)c1ccc(OCCCCCOc2ccc(C(=N)N)cc2)cc1 [pentamidine] | – | – | – | – | – | – | IC50 (Leishmania spp. [9]): 30 µM
7 | CNCCCCCOc1nn(Cc2ccccc2)c2ccc([N+](=O)[O-])cc12 [NV15] | 5.6 ± 2.5 | 1.88 ± 1.34 | 1.27 ± 0.06 | – | – | 1.53 ± 0.13 | –
8 | O=[N+]([O-])c1ccc2c(c1)c(OCCCN1CCCCC1)nn2Cc1ccccc1 [NV8] | 23.2 ± 5 | – | – | – | – | – | Structural damage, scanning electron microscopy [10]: the bodies were completely swollen and spheroidal in appearance; Ultrastructural damage, transmission electron microscopy [10]: most of the parasites are atypical; many are swollen or deformed and present large cytosolic vacuoles
9 | C[C@@H]1[C@H](O)[C@@H](C)/C=C/C=C/C=C/C=C/C=C/C=C/C=C/[C@H](O[C@@H]2O[C@H](C)[C@@H](O)[C@H](N)[C@@H]2O)C[C@@H]2O[C@](O)(C[C@@H](O)C[C@@H](O)[C@H](O)CC[C@@H](O)C[C@@H](O)CC(=O)O[C@H]1C)C[C@H](O)[C@H]2C(=O)O [AmB, Amphotericin B, reference compound] | – | – | – | 0.046 ± 0.012 | – | 0.036 ± 0.008 | CC50 at 48 h [1]: 5.8 ± 0.5 µM; IC50 ([2]; Leishmania amazonensis): 0.03 ± 0.01 µM; IC50 ([3]; Leishmania infantum): 0.28 ± 0.01 µM; EC50 ([7]; Leishmania amazonensis): 0.034 ± 0.006 µM; EC50 ([5]; Leishmania infantum): 0.6 ± 0.21 µM
10 | CN(C)CCOc1nn(Cc2ccccc2)c2ccc([N+](=O)[O-])cc12 [NV4] | 67.1 ± 8.9 | – | ≤ 1 | 2.3 ± 0.4 | ≤ 5 | – | IC50 ([3]; promastigotes, L. infantum): 0.52 ± 0.05 µM; EC50 [7, 18]: 12.3 ± 0.7 µM; EC50 [5, 19]: 3.42 ± 1.8 µM
11 | CN(C)CCCOc1nn(Cc2ccccc2)c2ccc([N+](=O)[O-])cc12 [NV6] | 61 ± 6.9 | – | ≤ 1 | – | ≤ 5 | – | IC50 ([3]; promastigotes, L. infantum): 0.69 ± 0.063 µM; EC50 [5, 19]: 3.79 ± 1.46 µM
12 | C[C@@H](c1nc(-c2ccc(C#N)cc2)cs1)[C@](O)(Cn1cncn1)c1ccc(F)cc1F [ravuconazole] | – | – | – | – | – | – | EC50 [8]: 5.11 µM
13 | O=[N+]([O-])c1ccc2c(c1)c(OCCCCCBr)nn2Cc1ccccc1 [NV12] | – | 2.88 ± 1.47 | 32.96 ± 0.25 | 2.8 ± 1.1 | – | – | Classification against promastigotes (Leishmania spp. [11]): inactive
14 | O=[N+]([O-])c1ccc2c(c1)c(OCCBr)nn2Cc1ccccc1 [NV11] | – | 20.7 ± 1.38 | 20.4 ± 1.3 | 9.38 ± 0.13 | – | – | Classification against promastigotes (Leishmania spp. [11]): inactive
15 | NCCCCCOc1nn(Cc2ccccc2)c2ccc([N+](=O)[O-])cc12 [NV17] | 7.74 ± 3 | 1.01 ± 0.39 | – | 2.9 ± 0.1 | 11.8 ± 1.04 | – | –
16 | CNCCOc1nn(Cc2ccccc2)c2ccc([N+](=O)[O-])cc12 [NV13] | 61.4 ± 9.4 | ≤ 1 | – | – | 16.2 ± 0.54 | 11.6 ± 0.7 | IC50 ([2]; promastigotes, L. amazonensis): 0.82 ± 0.27 µM; EC50 [7, 18]: 5.66 ± 0.53 µM
17 | O=[N+]([O-])c1ccc2c(c1)c(OCCN1CCCCC1)nn2Cc1ccccc1 [NV7] | 24.4 ± 6.7 | – | – | – | 12.8 ± 0.13 | 3.1 ± 1.05 | EC50 [7, 18]: 5.61 ± 0.69 µM
18 | CCCCCCCCCCCCCCCCOP(=O)([O-])OCC[N+](C)(C)C [miltefosine] | – | – | – | – | – | – | IC50 (Leishmania spp. [9]): 50.7 µM
19 | CC(=O)OCCn1c2ccc([N+](=O)[O-])cc2c(=O)n1Cc1ccccc1 [VATR 131] | – | – | – | – | – | – | Structural damage, scanning electron microscopy [10]: an alteration in the morphology of the parasites was observed from the lowest concentration of the compound; Ultrastructural damage, transmission electron microscopy [10]: very similar to those observed for NV8 at concentrations equivalent to ¼ IC50 and ½ IC50; IC50 [12]: 2.13 µM
